Laboratory results from ChEMBL document CHEMBL1201862, “PubChem BioAssay data set” (2004).
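48-hour exposure; five concentrations; linearly interpolated endpoints. At the GI50, growth is halved.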 Calls of active or inactive are those of the source. Rule as the data show it: active = GI50 up to about 1.1 µM and inactive = higher.

How the values were obtained:
Assay in all cases: inhibition of tumour cell growth, NCI panel, 48 h
MDA-MB-435 = test system: MDA-MB-435
NCI-H460 = test system: NCI-H460
SK-OV-3 = test system: SK-OV-3
T47D = test system: T47D
OVCAR-8 = test system: OVCAR-8
BT-549 = test system: BT-549
UO-31 = test system: UO-31
CCRF-CEM = test system: CCRF-CEM
KM12 = test system: KM12
HCT-15 = test system: HCT-15
Malme-3M = test system: Malme-3M
PC-3 = test system: PC-3
DU-145 = test system: DU-145
HT-29 = test system: HT-29
MCF7 = test system: MCF7
UACC-257 = test system: UACC-257
NCI/ADR-RES = test system: NCI/ADR-RES
SK-MEL-2 = test system: SK-MEL-2
Hs-578T = test system: Hs-578T
786-0 = test system: 786-0
TK-10 = test system: TK-10
UACC-62 = test system: UACC-62
HL-60 = test system: HL-60
HOP-62 = test system: HOP-62
U-251 = test system: U-251
CAKI-1 = test system: CAKI-1
RPMI-8226 = test system: RPMI-8226
IGROV-1 = test system: IGROV-1
OVCAR-4 = test system: OVCAR-4
HOP-92 = test system: HOP-92
MDA-N = test system: MDA-N
SF-295 = test system: SF-295
HCT-116 = test system: HCT-116
MOLT-4 = test system: MOLT-4
SF-539 = test system: SF-539
NCI-H226 = test system: NCI-H226
K562 = test system: K562
OVCAR-5 = test system: OVCAR-5
RXF 393 = test system: RXF 393
COLO 205 = test system: COLO 205
MDA-MB-231 = test system: MDA-MB-231
SW-620 = test system: SW-620
SK-MEL-28 = test system: SK-MEL-28
NCI-H23 = test system: NCI-H23
OVCAR-3 = test system: OVCAR-3
EKVX = test system: EKVX
SN12C = test system: SN12C
ACHN = test system: ACHN
SF-268 = test system: SF-268
HCC 2998 = test system: HCC 2998
A549 = test system: A549
NCI-H522 = test system: NCI-H522
SNB-19 = test system: SNB-19
LOX IMVI = test system: LOX IMVI
SNB-75 = test system: SNB-75
M14 = test system: M14
A498 = test system: A498
SK-MEL-5 = test system: SK-MEL-5
SR = test system: SR

CN(CC(=O)O)CC(=O)O
GI50 (MDA-MB-435): > 100 µM (inactive)
GI50 (NCI-H460): > 100 µM (inactive)
GI50 (SK-OV-3): > 100 µM (inactive)
GI50 (T47D): > 100 µM (inactive)
GI50 (OVCAR-8): > 100 µM (inactive)
GI50 (BT-549): > 100 µM (inactive)
GI50 (UO-31): > 100 µM (inactive)
GI50 (CCRF-CEM): > 100 µM (inactive)
GI50 (KM12): > 100 µM (inactive)
GI50 (HCT-15): > 100 µM
GI50 (Malme-3M): > 100 µM (inactive)
GI50 (PC-3): > 100 µM (inactive)
GI50 (DU-145): > 100 µM (inactive)
GI50 (HT-29): > 100 µM (inactive)
GI50 (MCF7): > 100 µM (inactive)
GI50 (UACC-257): > 100 µM (inactive)
GI50 (NCI/ADR-RES): > 100 µM (inactive)
GI50 (SK-MEL-2): > 100 µM (inactive)
GI50 (Hs-578T): > 100 µM (inactive)
GI50 (786-0): > 100 µM (inactive)
GI50 (TK-10): > 100 µM (inactive)
GI50 (UACC-62): > 100 µM (inactive)
GI50 (HL-60): > 100 µM (inactive)
GI50 (HOP-62): > 100 µM (inactive)
GI50 (U-251): > 100 µM (inactive)
GI50 (CAKI-1): > 100 µM (inactive)
GI50 (RPMI-8226): > 100 µM (inactive)
GI50 (IGROV-1): > 100 µM (inactive)
GI50 (OVCAR-4): > 100 µM (inactive)
GI50 (HOP-92): > 100 µM (inactive)
GI50 (MDA-N): > 100 µM (inactive)
GI50 (SF-295): > 100 µM (inactive)
GI50 (HCT-116): > 100 µM (inactive)
GI50 (MOLT-4): > 100 µM (inactive)
GI50 (SF-539): > 100 µM (inactive)
GI50 (NCI-H226): > 100 µM (inactive)
GI50 (K562): > 100 µM (inactive)
GI50 (OVCAR-5): > 100 µM (inactive)
GI50 (RXF 393): > 100 µM (inactive)
GI50 (COLO 205): 68.2 µM (inactive)
GI50 (MDA-MB-231): > 100 µM (inactive)
GI50 (SW-620): > 100 µM (inactive)
GI50 (SK-MEL-28): > 100 µM (inactive)
GI50 (NCI-H23): > 100 µM (inactive)
GI50 (OVCAR-3): > 100 µM (inactive)
GI50 (EKVX): > 100 µM (inactive)
GI50 (SN12C): > 100 µM (inactive)
GI50 (ACHN): > 100 µM (inactive)
GI50 (SF-268): > 100 µM (inactive)
GI50 (HCC 2998): > 100 µM (inactive)
GI50 (A549): > 100 µM (inactive)
GI50 (NCI-H522): > 100 µM (inactive)
GI50 (SNB-19): > 100 µM (inactive)
GI50 (LOX IMVI): > 100 µM (inactive)
GI50 (SNB-75): 0.427 µM (active)
GI50 (M14): > 100 µM (inactive)
GI50 (A498): > 100 µM (inactive)
GI50 (SK-MEL-5): 31 µM (inactive)

C[C@]12OC[C@H](c3ccccc3)N1C(=O)C1[C@H]2CC12SCCS2 (stereo partly drawn)
GI50 (MDA-MB-435): > 100 µM (inactive)
GI50 (NCI-H460): > 100 µM (inactive)
GI50 (SK-OV-3): > 100 µM (inactive)
GI50 (T47D): > 100 µM (inactive)
GI50 (OVCAR-8): > 100 µM (inactive)
GI50 (BT-549): > 100 µM (inactive)
GI50 (UO-31): > 100 µM (inactive)
GI50 (CCRF-CEM): > 100 µM (inactive)
GI50 (KM12): > 100 µM (inactive)
GI50 (HCT-15): > 100 µM
GI50 (Malme-3M): > 100 µM (inactive)
GI50 (PC-3): > 100 µM (inactive)
GI50 (DU-145): > 100 µM (inactive)
GI50 (HT-29): > 100 µM (inactive)
GI50 (MCF7): > 100 µM (inactive)
GI50 (UACC-257): > 100 µM (inactive)
GI50 (NCI/ADR-RES): > 100 µM (inactive)
GI50 (SK-MEL-2): > 100 µM (inactive)
GI50 (Hs-578T): > 100 µM (inactive)
GI50 (786-0): > 100 µM (inactive)
GI50 (TK-10): > 100 µM (inactive)
GI50 (UACC-62): > 100 µM (inactive)
GI50 (HOP-62): > 100 µM (inactive)
GI50 (U-251): > 100 µM (inactive)
GI50 (CAKI-1): > 100 µM (inactive)
GI50 (RPMI-8226): > 100 µM (inactive)
GI50 (IGROV-1): > 100 µM (inactive)
GI50 (OVCAR-4): > 100 µM (inactive)
GI50 (HOP-92): > 100 µM (inactive)
GI50 (MDA-N): > 100 µM (inactive)
GI50 (SF-295): > 100 µM (inactive)
GI50 (HCT-116): > 100 µM (inactive)
GI50 (MOLT-4): > 100 µM (inactive)
GI50 (SF-539): > 100 µM (inactive)
GI50 (NCI-H226): > 100 µM (inactive)
GI50 (K562): > 100 µM (inactive)
GI50 (OVCAR-5): > 100 µM (inactive)
GI50 (RXF 393): > 100 µM (inactive)
GI50 (COLO 205): > 100 µM (inactive)
GI50 (MDA-MB-231): > 100 µM (inactive)
GI50 (SW-620): > 100 µM (inactive)
GI50 (SK-MEL-28): > 100 µM (inactive)
GI50 (NCI-H23): > 100 µM (inactive)
GI50 (OVCAR-3): > 100 µM (inactive)
GI50 (EKVX): > 100 µM (inactive)
GI50 (SN12C): > 100 µM (inactive)
GI50 (ACHN): > 100 µM (inactive)
GI50 (SF-268): > 100 µM (inactive)
GI50 (HCC 2998): > 100 µM (inactive)
GI50 (SR): > 100 µM (inactive)
GI50 (A549): > 100 µM (inactive)
GI50 (NCI-H522): > 100 µM (inactive)
GI50 (SNB-19): > 100 µM (inactive)
GI50 (SNB-75): > 100 µM (inactive)
GI50 (M14): > 100 µM (inactive)
GI50 (A498): > 100 µM (inactive)
GI50 (SK-MEL-5): > 100 µM (inactive)

CCCCCCC(=O)OC[n+]1cccc(-c2c(COC(=O)NC(C)C)c(COC(=O)NC(C)C)c3n2CCC3)c1
GI50 (MDA-MB-435): 70.8 µM (inactive)
GI50 (NCI-H460): 14.5 µM (inactive)
GI50 (SK-OV-3): 40.6 µM (inactive)
GI50 (T47D): 61.8 µM (inactive)
GI50 (OVCAR-8): 34.4 µM (inactive)
GI50 (BT-549): 37.8 µM (inactive)
GI50 (UO-31): 26.2 µM (inactive)
GI50 (CCRF-CEM): 9.55 µM (inactive)
GI50 (KM12): > 100 µM (inactive)
GI50 (HCT-15): 42.6 µM
GI50 (Malme-3M): 38.9 µM (inactive)
GI50 (PC-3): > 56.8 µM (inactive)
GI50 (DU-145): 35.9 µM (inactive)
GI50 (HT-29): 40.6 µM (inactive)
GI50 (MCF7): 27.6 µM (inactive)
GI50 (UACC-257): 64.1 µM (inactive)
GI50 (NCI/ADR-RES): 32.4 µM (inactive)
GI50 (SK-MEL-2): 26.7 µM (inactive)
GI50 (Hs-578T): > 57.4 µM (inactive)
GI50 (786-0): 21.6 µM (inactive)
GI50 (TK-10): 56.2 µM (inactive)
GI50 (UACC-62): 20 µM (inactive)
GI50 (HL-60): 8.57 µM (inactive)
GI50 (HOP-62): 42.5 µM (inactive)
GI50 (U-251): 29.4 µM (inactive)
GI50 (CAKI-1): 11 µM (inactive)
GI50 (RPMI-8226): 32.1 µM (inactive)
GI50 (IGROV-1): > 41.8 µM (inactive)
GI50 (OVCAR-4): 33.7 µM (inactive)
GI50 (HOP-92): 24.9 µM (inactive)
GI50 (MDA-N): > 95.3 µM (inactive)
GI50 (SF-295): > 62.2 µM (inactive)
GI50 (HCT-116): 32.8 µM (inactive)
GI50 (MOLT-4): 11.6 µM (inactive)
GI50 (SF-539): 32.1 µM (inactive)
GI50 (NCI-H226): 60.7 µM (inactive)
GI50 (K562): 31.6 µM (inactive)
GI50 (OVCAR-5): > 58.9 µM (inactive)
GI50 (RXF 393): 20.4 µM (inactive)
GI50 (COLO 205): 51.4 µM (inactive)
GI50 (MDA-MB-231): 47.3 µM (inactive)
GI50 (SW-620): 28.4 µM (inactive)
GI50 (SK-MEL-28): > 100 µM (inactive)
GI50 (NCI-H23): 26.9 µM (inactive)
GI50 (OVCAR-3): 41.4 µM (inactive)
GI50 (EKVX): > 100 µM (inactive)
GI50 (SN12C): 31 µM (inactive)
GI50 (ACHN): 21.4 µM (inactive)
GI50 (SF-268): 20.4 µM (inactive)
GI50 (HCC 2998): > 100 µM (inactive)
GI50 (A549): 60 µM (inactive)
GI50 (NCI-H522): 22.6 µM (inactive)
GI50 (SNB-19): 90.6 µM (inactive)
GI50 (LOX IMVI): 22 µM (inactive)
GI50 (SNB-75): 35.4 µM (inactive)
GI50 (M14): 39.2 µM (inactive)
GI50 (A498): 23 µM (inactive)
GI50 (SK-MEL-5): 32.4 µM (inactive)
